Test [1] addresses T1, phosphorylated EGFR (pEGFR) (Homo sapiens, UniProt P00533).
T1 construct: performed to measure phosphorylated EGFR levels using A431 cells (10% FBS); endogenous in cells; host or cells: A431
The test is described as follows: Detection of phosphorylated EGFR (pEGFR) in EGF-stimulated A431 cells. It is filed as cell-based. As to conditions: A431 cells (10% FBS), 4 hours incubation, EGF 30 ng/mL 10 minutes, AlphaLISA. An outline of the steps: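 AlphaLISA read-out of EGFR phosphorylation after a 10-min EGF pulse (30 ng/mL final). A431 cells (10% FBS) had been exposed to compound for 4 h at 37 °C. IC50 was fitted from % inhibition normalised to DMSO and staurosporine control lysates.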

Test [2] addresses T2, phosphorylated ERBB2 (pERBB2) (Homo sapiens, UniProt P04626).
T2 construct: endogenous in cells; host or cells: BT-474
In words: Detection of phosphorylated ERBB2 (pERBB2) by ELISA in BT-474 cells. As to conditions: four hours incubation. Type of test: cell-based. Summed up: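 Phospho-ERBB2 in lysates was quantified by sandwich ELISA (A450, TMB) after 4 h compound exposure at 37 °C of BT-474 cells seeded at 2.0×10^4 per well. Compounds tested at 10 µM to 0.01 nM final in four-fold steps; activity normalized to DMSO (0.1%) high and cell-free low controls.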
On the technique in general: In an ELISA, binding on a coated surface is turned into a signal by an enzyme label.

Test [3] has as its target Ba/F3 ERBB2 A775_G776insYVMA (Homo sapiens, UniProt P04626, DUP772-775, cells depend on it). In words: Cell viability assay, Ba/F3 ERBB2 A775_G776insYVMA. Type of test: cell-based, mouse. As to conditions: Ba/F3 ERBB2 YVMA cells, cell viability, 72 hours, CellTiter Glo; Table B5; read-out: Ba/F3 ERBB2 YVMA, IC50. Summed up: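 Viability after 72 h compound treatment (37 °C, 5% CO2) was quantified by CellTiter-Glo luminescence of intracellular ATP, with sigmoidal dose-response fitting. Cells were retrovirally engineered Ba/F3 lines whose growth depends on the mutant human ERBB2 in place of IL-3, plated at 3000 per well.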
A general note: Cellular ATP, detected with luciferase, serves as a proxy for viable cell number.

SMILES strings stand for the structures.

The term IC50 denotes the midpoint of a concentration-inhibition curve.

Ba/F3 ERBB2 A775_G776insYVMA, sequence (P04626 with tags, fused parts or gaps DUP772-775): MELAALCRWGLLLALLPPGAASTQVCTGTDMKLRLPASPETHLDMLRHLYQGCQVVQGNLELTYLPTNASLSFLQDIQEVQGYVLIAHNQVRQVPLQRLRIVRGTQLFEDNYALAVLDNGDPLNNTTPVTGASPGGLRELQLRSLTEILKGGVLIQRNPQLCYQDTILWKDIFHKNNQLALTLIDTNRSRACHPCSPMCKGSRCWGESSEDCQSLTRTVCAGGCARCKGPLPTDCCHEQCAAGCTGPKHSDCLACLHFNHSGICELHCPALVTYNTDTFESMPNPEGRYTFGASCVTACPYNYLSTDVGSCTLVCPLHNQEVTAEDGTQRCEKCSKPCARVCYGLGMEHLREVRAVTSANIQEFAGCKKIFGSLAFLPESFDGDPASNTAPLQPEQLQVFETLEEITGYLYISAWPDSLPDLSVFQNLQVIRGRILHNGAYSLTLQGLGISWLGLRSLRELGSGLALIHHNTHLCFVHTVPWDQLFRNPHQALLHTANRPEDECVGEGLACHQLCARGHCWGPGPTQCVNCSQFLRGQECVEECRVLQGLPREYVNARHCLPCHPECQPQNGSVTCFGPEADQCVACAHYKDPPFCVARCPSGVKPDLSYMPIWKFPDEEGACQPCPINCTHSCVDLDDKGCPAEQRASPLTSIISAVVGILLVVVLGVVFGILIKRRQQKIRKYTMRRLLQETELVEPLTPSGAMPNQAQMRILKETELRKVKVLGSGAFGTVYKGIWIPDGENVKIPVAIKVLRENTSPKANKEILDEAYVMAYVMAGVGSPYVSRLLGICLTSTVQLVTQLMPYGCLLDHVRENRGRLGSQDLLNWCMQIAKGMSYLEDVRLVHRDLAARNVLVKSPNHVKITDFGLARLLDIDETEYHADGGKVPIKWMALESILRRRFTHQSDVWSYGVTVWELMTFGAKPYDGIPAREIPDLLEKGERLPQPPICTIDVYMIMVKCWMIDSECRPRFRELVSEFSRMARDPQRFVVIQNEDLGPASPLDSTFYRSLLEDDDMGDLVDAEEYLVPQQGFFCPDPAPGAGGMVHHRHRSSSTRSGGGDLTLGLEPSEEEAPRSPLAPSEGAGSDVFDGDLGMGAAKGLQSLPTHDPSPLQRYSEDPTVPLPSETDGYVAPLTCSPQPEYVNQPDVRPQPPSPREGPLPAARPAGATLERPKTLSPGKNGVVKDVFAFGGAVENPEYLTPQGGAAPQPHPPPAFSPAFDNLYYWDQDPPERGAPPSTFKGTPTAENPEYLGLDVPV
T2 sequence (P04626 23-1255): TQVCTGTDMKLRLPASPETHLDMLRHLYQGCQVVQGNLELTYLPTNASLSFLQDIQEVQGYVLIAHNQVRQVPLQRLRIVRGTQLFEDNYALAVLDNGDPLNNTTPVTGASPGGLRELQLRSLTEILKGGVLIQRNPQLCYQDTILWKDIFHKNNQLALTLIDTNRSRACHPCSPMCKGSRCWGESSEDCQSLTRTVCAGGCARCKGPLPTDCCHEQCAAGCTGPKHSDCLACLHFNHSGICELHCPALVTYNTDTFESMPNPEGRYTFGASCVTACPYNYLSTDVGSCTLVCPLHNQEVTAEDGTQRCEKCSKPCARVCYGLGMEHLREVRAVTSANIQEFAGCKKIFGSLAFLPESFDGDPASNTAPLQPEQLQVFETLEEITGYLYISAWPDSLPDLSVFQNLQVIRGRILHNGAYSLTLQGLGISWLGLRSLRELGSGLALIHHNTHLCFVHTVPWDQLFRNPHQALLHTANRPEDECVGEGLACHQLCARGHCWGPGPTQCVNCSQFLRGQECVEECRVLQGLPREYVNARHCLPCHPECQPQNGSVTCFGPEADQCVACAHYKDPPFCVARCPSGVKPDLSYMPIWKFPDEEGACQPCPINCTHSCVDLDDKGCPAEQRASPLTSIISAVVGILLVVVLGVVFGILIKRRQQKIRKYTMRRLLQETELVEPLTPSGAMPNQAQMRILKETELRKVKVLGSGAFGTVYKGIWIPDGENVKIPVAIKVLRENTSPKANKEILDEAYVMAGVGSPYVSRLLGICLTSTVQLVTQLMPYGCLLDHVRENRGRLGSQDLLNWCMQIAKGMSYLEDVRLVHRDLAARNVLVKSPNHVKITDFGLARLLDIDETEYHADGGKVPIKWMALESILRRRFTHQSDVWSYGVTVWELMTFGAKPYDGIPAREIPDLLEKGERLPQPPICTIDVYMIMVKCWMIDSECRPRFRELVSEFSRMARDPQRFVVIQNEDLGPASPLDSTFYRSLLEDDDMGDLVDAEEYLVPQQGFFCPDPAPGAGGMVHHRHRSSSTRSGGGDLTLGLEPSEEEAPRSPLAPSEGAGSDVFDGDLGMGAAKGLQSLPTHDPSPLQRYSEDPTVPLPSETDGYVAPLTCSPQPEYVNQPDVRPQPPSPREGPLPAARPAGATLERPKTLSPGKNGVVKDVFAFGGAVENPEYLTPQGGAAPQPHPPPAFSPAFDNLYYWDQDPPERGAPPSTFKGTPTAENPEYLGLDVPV
T1 sequence (P00533 25-1210): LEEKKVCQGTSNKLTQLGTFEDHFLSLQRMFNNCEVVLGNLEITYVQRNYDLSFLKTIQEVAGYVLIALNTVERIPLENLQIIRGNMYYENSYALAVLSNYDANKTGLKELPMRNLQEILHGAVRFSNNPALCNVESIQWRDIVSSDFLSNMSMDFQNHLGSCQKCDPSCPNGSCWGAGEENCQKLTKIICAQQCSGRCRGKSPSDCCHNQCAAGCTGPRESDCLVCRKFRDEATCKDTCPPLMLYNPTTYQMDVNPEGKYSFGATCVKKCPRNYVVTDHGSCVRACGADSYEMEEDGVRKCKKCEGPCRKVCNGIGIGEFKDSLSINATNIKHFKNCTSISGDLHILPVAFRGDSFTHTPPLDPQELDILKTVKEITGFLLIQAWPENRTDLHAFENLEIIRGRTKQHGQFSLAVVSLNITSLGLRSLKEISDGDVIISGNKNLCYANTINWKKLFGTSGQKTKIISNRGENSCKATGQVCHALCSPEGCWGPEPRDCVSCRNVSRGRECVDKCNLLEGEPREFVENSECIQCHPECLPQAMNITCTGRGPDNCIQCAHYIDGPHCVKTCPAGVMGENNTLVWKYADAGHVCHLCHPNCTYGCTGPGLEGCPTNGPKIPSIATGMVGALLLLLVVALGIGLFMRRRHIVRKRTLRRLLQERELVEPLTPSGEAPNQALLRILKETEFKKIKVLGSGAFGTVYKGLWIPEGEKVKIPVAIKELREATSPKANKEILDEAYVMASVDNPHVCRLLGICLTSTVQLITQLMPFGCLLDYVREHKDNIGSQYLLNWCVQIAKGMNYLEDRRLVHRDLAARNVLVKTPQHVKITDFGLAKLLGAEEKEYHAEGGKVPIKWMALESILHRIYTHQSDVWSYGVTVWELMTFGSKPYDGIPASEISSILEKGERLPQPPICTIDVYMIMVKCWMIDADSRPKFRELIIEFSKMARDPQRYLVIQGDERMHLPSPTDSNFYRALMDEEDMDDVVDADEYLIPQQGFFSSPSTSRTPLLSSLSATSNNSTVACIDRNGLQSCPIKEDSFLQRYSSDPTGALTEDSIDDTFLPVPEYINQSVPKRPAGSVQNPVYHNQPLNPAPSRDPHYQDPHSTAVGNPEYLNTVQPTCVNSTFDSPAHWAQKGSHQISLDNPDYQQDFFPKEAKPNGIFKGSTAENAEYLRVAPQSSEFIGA

Turning to `Cc1cc(Nc2ncnc3ccc(N4CC/C(=C\CN(C)C)C4=O)nc23)ccc1Oc1ccn2c(C)cnc2c1` [Compound 81, (E)-3-(2-(dimethylamino)ethylidene)-1-(4-((3-methyl-4-((3-methylimidazo[1,2-a]pyridin-7-yl)oxy)phenyl)amino)pyrido[3,2-d]pyrimidin-6-yl)pyrrolidin-2-one], the IC50 in test [1] stood at 1130 nM; in test [2] it was 72.3 nM. In test [3], the GI50 is 3.86 nM.
On to `Cc1cc(Nc2ncnc3cnc(N4CC/C(=C\CN(C)C)C4=O)cc23)ccc1Oc1ccn2c(C)cnc2c1` [Compound 82, (3E)-3-[2-(dimethylamino)ethylidene]-1-(4-{[3-methyl-4-({3-methylimidazo[1,2-a]pyridin-7-yl}oxy)phenyl]amino}pyrido[3,4-d]pyrimidin-6-yl)pyrrolidin-2-one], for which the IC50 in test [1] worked out at 3990 nM; in test [2], 54.1 nM. In addition, the GI50 in test [3] worked out at 6.39 nM.
Turning to `Cc1cc(Nc2ncnc3ccc(N4CC/C(=C/CN(C)C)C4=O)nc23)ccc1Oc1ccc2c(c1)ncn2C` [Compound 83, (Z)-3-(2-(dimethylamino)ethylidene)-1-(4-((3-methyl-4-((1-methyl-1H-benzo[d]imidazol-5-yl)oxy)phenyl)amino)pyrido[3,2-d]pyrimidin-6-yl)pyrrolidin-2-one], the IC50 in test [1] was 6030 nM; in test [2], 44.2 nM. For the same compound, the GI50 in test [3] amounted to 4.73 nM.
As to `C=C1CCN(c2nc3c(Nc4ccc(Oc5ccc6c(c5)ncn6C)c(C)c4)ncnc3s2)C1=O` [Compound 84, 1-[7-({3-methyl-4-[(1-methyl-1,3-benzodiazol-5-yl)oxy]phenyl}amino)-[1,3]thiazolo[5,4-d]pyrimidin-2-yl]-3-methylidenepyrrolidin-2-one], the results for the IC50 in test [1] and in test [2] were over 10000 nM and 425 nM, respectively. Besides, the GI50 in test [3] stood at 45 nM.
Taken in the same sequence, the figures for `C=C1CCN(c2ccc3ncnc(Nc4ccc(Oc5ccc6c(c5)ncn6C)c(C)c4)c3n2)C1=O` [Compound 87, 1-(4-((3-methyl-4-((1-methyl-1H-benzo[d]imidazol-5-yl)oxy)phenyl)amino)pyrido[3,2-d]pyrimidin-6-yl)-3-methylenepyrrolidin-2-one; formic acid] were 8160 nM, 87.2 nM and 23 nM.
`Cc1cc(Nc2ncnc3ccc(N4CC/C(=C\[C@@H]5CCCN5C)C4=O)nc23)ccc1Oc1ccn2ncnc2c1` [Compound 89, (S,E)-1-(4-((4-([1,2,4]triazolo[1,5-a]pyridin-7-yloxy)-3-methylphenyl)amino)pyrido[3,2-d]pyrimidin-6-yl)-3-((1-methylpyrrolidin-2-yl)methylene)pyrrolidin-2-one]: the IC50 in test [1] stood at 699 nM; in test [2], 28.9 nM. Further, the GI50 in test [3] is 1.87 nM.
As for `Cc1cc(Nc2ncnc3ccc(N4CC/C(=C\[C@H]5CCCN5C)C4=O)nc23)ccc1Oc1ccn2ncnc2c1` [Compound 90, (R,E)-1-(4-((4-([1,2,4]triazolo[1,5-a]pyridin-7-yloxy)-3-methylphenyl)amino)pyrido[3,2-d]pyrimidin-6-yl)-3-((1-methylpyrrolidin-2-yl)methylene)pyrrolidin-2-one], the IC50 in test [1] was 5770 nM; in test [2], 17.1 nM. The GI50 in test [3] was found to be 10.8 nM.
With `CN(C)C/C=C1\CCN(c2ccc3ncnc(Nc4ccc(Oc5ccc6c(c5)ncn6C)c(F)c4)c3n2)C1=O` [Compound 91, (3E)-3-[2-(dimethylamino)ethylidene]-1-[4-({3-fluoro-4-[(1-methyl-1,3-benzodiazol-5-yl)oxy]phenyl}amino)pyrido[3,2-d]pyrimidin-6-yl]pyrrolidin-2-one], the IC50 was over 10000 nM in test [1] and 18.9 nM in test [2]. In addition, the GI50 in test [3] worked out at 2.08 nM.
As for `CN(C)C/C=C1\CCN(c2ccc3ncnc(Nc4ccc(Oc5ccc6c(c5)ncn6C)cc4)c3n2)C1=O` [Compound 92, (3E)-3-[2-(dimethylamino)ethylidene]-1-[4-({4-[(1-methyl-1,3-benzodiazol-5-yl)oxy]phenyl}amino)pyrido[3,2-d]pyrimidin-6-yl]pyrrolidin-2-one], the IC50 in test [1] was over 10000 nM; in test [2], 21.3 nM. Moreover, the GI50 in test [3] is 3.12 nM.
As to `C=C1CCCN(c2ccc3ncnc(Nc4ccc(Oc5ccn6ncnc6c5)c(C)c4)c3n2)C1=O` [Compound 95, 1-(4-((4-([1,2,4]triazolo[1,5-a]pyridin-7-yloxy)-3-methylphenyl)amino)pyrido[3,2-d]pyrimidin-6-yl)-3-methylenepiperidin-2-one], the IC50 in test [1] worked out at 476 nM; in test [2] it was 12.2 nM. Besides, the GI50 in test [3] is 5.2 nM.
In the case of `C=C1CCCN(c2ccc3ncnc(Nc4ccc(Oc5ccc6c(c5)ncn6C)c(C)c4)c3n2)C1=O` [Compound 96, 1-[4-({3-methyl-4-[(1-methyl-1,3-benzodiazol-5-yl)oxy]phenyl}amino)pyrido[3,2-d]pyrimidin-6-yl]-3-methylidenepiperidin-2-one], the results for the IC50 in test [1] and in test [2] were 794 nM and 22.8 nM, respectively. Further, in test [3], the GI50 stood at 18.6 nM.
For `CN(C)C/C=C1\CCN(c2ccc3ncnc(Nc4ccc(Oc5ccc6c(c5)ncn6C)c(Cl)c4)c3n2)C1=O` [Compound 98, (E)-1-(4-((3-chloro-4-((1-methyl-1H-benzo[d]imidazol-5-yl)oxy)phenyl)amino)pyrido[3,2-d]pyrimidin-6-yl)-3-(2-(dimethylamino)ethylidene)pyrrolidin-2-one], the results for the IC50 in test [1] and in test [2] were 942 nM and 40.3 nM, respectively. The GI50 in test [3] came to 1.81 nM.
On to `CN(C)C/C=C1\CCN(c2ccc3ncnc(Nc4ccc(Oc5ccc6c(c5)ncn6C)cc4F)c3n2)C1=O` [Compound 99, (3E)-3-[2-(dimethylamino)ethylidene]-1-[4-({2-fluoro-4-[(1-methyl-1,3-benzodiazol-5-yl)oxy]phenyl}amino)pyrido[3,2-d]pyrimidin-6-yl]pyrrolidin-2-one], for which the IC50 in test [1] was over 10000 nM; in test [2], 38.8 nM. Moreover, the GI50 in test [3] turned out to be 6.64 nM.
Take `CNC/C=C1\CCN(c2ccc3ncnc(Nc4ccc(Oc5ccc6c(c5)ncn6C)c(C)c4)c3n2)C1=O` [Compound 100, (3E)-1-[4-({3-methyl-4-[(1-methyl-1,3-benzodiazol-5-yl)oxy]phenyl}amino)pyrido[3,2-d]pyrimidin-6-yl]-3-[2-(methylamino)ethylidene]pyrrolidin-2-one; formic acid]: the IC50 stood at 157 nM in test [1] and 57.7 nM in test [2]. Further, the GI50 in test [3] amounted to 3.19 nM.
Taken in the same sequence, the figures for `Cc1cc(Nc2ncnc3cnc(N4CC/C(=C\CN(C)C)C4=O)cc23)ccc1Oc1ccc2c(c1)nnn2C` [Compound 101, (E)-3-(2-(dimethylamino)ethylidene)-1-(4-((3-methyl-4-((1-methyl-1H-benzo[d][1,2,3]triazol-5-yl)oxy)phenyl)amino)pyrido[3,4-d]pyrimidin-6-yl)pyrrolidin-2-one] were 1160 nM, 22.3 nM and 4.32 nM.
As to `Cc1cc(Nc2ncnc3cnc(N4CC/C(=C\CN5CCC5)C4=O)cc23)ccc1Oc1ccn2ncnc2c1` [Compound 102, (E)-1-(4-((4-([1,2,4]triazolo[1,5-a]pyridin-7-yloxy)-3-methylphenyl)amino)pyrido[3,4-d]pyrimidin-6-yl)-3-(2-(azetidin-1-yl)ethylidene)pyrrolidin-2-one], the IC50 in test [1] was found to be 3010 nM; in test [2], 8.26 nM. Moreover, the GI50 in test [3] stood at 7.51 nM.
Taken in the same sequence, the figures for `[2H]C([2H])([2H])N(C/C=C1\CCN(c2ccc3ncnc(Nc4ccc(Oc5ccc6c(c5)ncn6C)c(C)c4)c3n2)C1=O)C([2H])([2H])[2H]` [Compound 105, (E)-3-(2-(bis(methyl-d3)amino)ethylidene)-1-(4-((3-methyl-4-((1-methyl-1H-benzo[d]imidazol-5-yl)oxy)phenyl)amino)pyrido[3,2-d]pyrimidin-6-yl)pyrrolidin-2-one] were 503 nM, 43.7 nM and 2.17 nM.
For the compound `[2H]C([2H])([2H])N(C/C=C1\CCN(c2ccc3ncnc(Nc4ccc(Oc5ccc6c(c5)ncn6C([2H])([2H])[2H])c(C)c4)c3n2)C1=O)C([2H])([2H])[2H]` [Compound 106, (E)-3-(2-(bis(methyl-d3)amino)ethylidene)-1-(4-((3-methyl-4-((1-(methyl-d3)-1H-benzo[d]imidazol-5-yl)oxy)phenyl)amino)pyrido[3,2-d]pyrimidin-6-yl)pyrrolidin-2-one], the IC50 in test [1] stood at 1690 nM; in test [2], 28.2 nM. The GI50 in test [3] is 2.99 nM.
Taken in the same sequence, the figures for `Cc1cc(Nc2ncnc3cnc(N4CC/C(=C\CN(C)C)C4=O)cc23)ccc1Oc1ccn2nnnc2c1` [Compound 107, (3E)-3-[2-(dimethylamino)ethylidene]-1-{4-[(3-methyl-4-{[1,2,3,4]tetrazolo[1,5-a]pyridin-7-yloxy}phenyl)amino]pyrido[3,4-d]pyrimidin-6-yl}pyrrolidin-2-one] were over 10000 nM, 21.6 nM and 81.3 nM.

The record behind these values is US20240116921A1, “LACTAM (HETERO)[…] DERIVATIVES AS INHIBITORS OF ERBB2” (EnLiven Therapeutics, Inc., priority 2020, published 2024).
